# Reference: US20250170224A1, “METHODS AND COMPOSITIONS FOR TREATING MICROGLIAL DYSFUNCTION AND IMPROVING METABOLIC DYSFUNCTION” (Ultimate Medicine AG, priority 2021, published 2025)
# Entries after “also recorded” stand apart in the source; their conditions may differ.
# Tested on: microglia
# Type: in vivo
# Procedure: Mice of the aged group in the nontargeted metabolomics analysis were 17-18 months old. Except for nontargeted metabolomics and microbiota profiling, where only male mice were used, all groups included mice from both sexes. Mice were housed under a 12-hour light/12-hour dark cycle and temperatures of 18-23° C. with 40-60% humidity, with food and water given ad libitum. To avoid cage effects, mice from at least three different cages per experimental group were analyzed. […] For modulation of CML in aged animals, 18-month-old SPF housed C57BL/6 mice were treated orally every third day for 10 weeks with vehicle (20% hydroxypropyl-p-cyclodextrin in 1× phosphate-buffered saline (PBS)), 10 mg kg^−1 ellagic acid (EA) or 3,000 U kg^−1 intestinal alkaline phosphatase (IAP). To assess in vivo intestinal permeability, tracer fluorescein isothiocyanate (FITC)-labeled dextran (4 kDa: Sigma-Aldrich) was used. Briefly, mice were deprived of food 4 hours before and both food and water 4 hours after oral gavage using 200 μl of 80 mg ml^−1 FITC-dextran. Blood was collected retro-orbitally after 4 hours and fluorescence intensity was measured on fluorescence plates using an excitation wavelength of 493 nm and an emission wavelength of 518 nm. To assess in vivo intestinal permeability to CML, mice were treated with […] CML (0.36 mM). Blood was collected retro-orbitally immediately before and 4 hours after treatment. CML translocated into the circulation was measured by liquid chromatography-mass spectrometry (LC-MS). All animal experiments were approved by the local administration in Germany (Regierungsprasidium Freiburg) and were performed in accordance with the respective national, federal, and institutional regulations and the guidelines of the Federation of European Laboratory Animal Science Associations.
# Mice were lethally anesthetized with ketamine (100 mg kg^−1 body weight) and xylazine (10 mg kg^−1 body weight) followed by perfusion with 1×PBS through the left heart chamber. For histology, brains were kept overnight in 4% paraformaldehyde (PFA). For flow cytometry and magnetic-activated cell sorting (MACS) beads cell sorting, brains were dissected, homogenized and filtered through a […] mesh. […] Myelin was removed from the top layer and the cell pellet was washed once with 1×PBS followed by antibody staining.
# Brain specimens from the cortex were first fixed overnight in 3% glutaraldehyde at 4° C., washed with Sorensen buffer, and then transferred to 1% osmium tetroxide for 2 hours at room temperature. Next, samples were dehydrated by a graded series of ethanol (30-100%) followed by 100% propylene oxide, resin/propylene oxide (1:2 (v/v)) and resin/propylene oxide (2:1 (v/v)). Samples were embedded in resin via polymerization for 24 hours at 75° C. Then, 700-nm semithin sections were cut and stained with 2% toluidine blue to define the region of interest for further preparation of 70 nm ultrathin sections using an ultramicrotome (Leica Reichert Ultracut S) after contrasting the sections with uranyl acetate and lead citrate (Leica Reichert Ultrastainer). To assess the mitochondrial phenotype in microglia, images were acquired with a ×7,900 or ×46,000 magnification using a CM100 electron microscope (Philips).
# Cell sorting for RT-qPCR and RNA sequencing (RNA-seq) was performed on a MoFlo Astrios (Beckman Coulter; FIG. 7a). Before surface staining, dead cells were excluded by using the Fixable Viability Dye eFluor 780 (1:1,000 dilution; Thermo Fisher Scientific) followed by incubation with Fc receptor blocking antibody CD16/CD32 (1:200 dilution, clone 2.4G2; BD Bioscience). […] To assess microglial cellular reactive oxidative species (ROS), the CellROX DeepRed Reagent ([…]; Thermo Fisher Scientific) was used. To assess mitochondrial activity, Tetramethylrhodamine, Methyl Ester, Perchlorate (50 nM; Thermo Fisher Scientific) and MitoTracker Green FM (20 nM; Thermo Fisher Scientific) were used.
# [1] = young-adult mice, i.p. once per day for two weeks
smiles,measurement,setting,value
"N[C@@H](CCCCNCC(=O)O)C(=O)O [CML, N^6-carboxymethyllysine]",brain CML concentrations after intraperitoneal injection of CML,"young-adult SPF mice, targeted metabolomics",increased brain CML concentrations
same,damage to mitochondrial structures in microglia (electron microscopy),young-adult mice treated with CML i.p.,caused mitochondrial dysfunction by directly inflicting damage to mitochondrial structures
same,microglial gene expression (RNA-seq) after intraperitoneal injection,"young-adult mice, CML versus vehicle","upregulated the expression of the ROS-related genes S100a9 and S100A8; also recorded: upregulated the expression of the ROS-related genes, S100a9 and S100A8"
same,cellular ATP stores in microglia,[1],reduced cellular ATP stores
same,metabolic function (metabolic/mitochondrial activity) of microglia,[1],decreased metabolic activity
same,recapitulation of the changes found in the microglia of aged mice,[1],partially recapitulate the changes found in the microglia of aged mice
same,intracellular ROS production / oxidative stress in microglia,"young-adult mice, i.p. once per day for two weeks, CellROX",increased oxidative stress
